Literature values in the CATMoS acute toxicity set (Mansouri et al. 2021).
“And” between values parts separate entries of the source, which are not always exact repeats. Identical values can stand only once.

Test: rat acute oral toxicity
Conditions: in vivo
From the text: […]The data set underlying the modeling effort for this project was initially compiled by NICEATM and U.S. EPA’s CCTE. Briefly, LD50 data were collected from rat acute oral systemic toxicity tests, including limit tests, ranges/confidence intervals, and discrete LD50 values. The full data set included 21,200 LD50 entries for 15,688 substances. […] Data were reviewed to ensure that LD50 values with obvious errors in the extracted data such as unit conversion errors (e.g., comma and decimal separator misplacements) were either fixed or removed. After this review, 16,209 LD50 values remained. Many of the chemicals represented had multiple LD50 entries, requiring that a single representative value per Chemical Abstracts Service Registry Number (CASRN) identifier be defined to facilitate modeling efforts. Based on ATWG feedback and to define the representative LD50 as a protective value while accounting for the distribution across multiple LD50s, the median of the lowest quartile was computed using only discrete LD50 values (omitting limit test data and range and confidence interval data). A detailed summary of the data compilation is available online on the NICEATM webpage dedicated to the collaborative modeling project (NTP 2020).
[…][…] For categorical designations, limit test and range/confidence interval LD50 data were integrated wherever possible. As such, the number of chemicals with end point values/calls varies across the modeling end points (Table 3) based on whether chemicals had representative LD50 values and/or other data. If a chemical had both, the representative value was used to determine categorical calls rather than limit test data. Some data were useable only for certain end points and categories depending on the thresholds. For example, ranges that spanned multiple hazard categories were considered only for the binary (very toxic/nontoxic) end points and omitted from rendering a determination for hazard category assignment.
[…]The final data set comprising 11,992 chemicals was split into training and evaluation sets […], respectively. This process was performed semirandomly by ordering chemicals based on the five end points (categorical and continuous LD50 values) and partitioning every fourth record into the evaluation set accordingly. This approach was taken to ensure an equivalent distribution of the LD50 values and the different hazard categories between the training and the evaluation sets without supervised sampling of the chemicals based on structures (Figure 1A). The sources of the chemical structures were also kept equivalent between the two sets, with chemical structures obtained from DSSTox, being the highest quality, representing over 75% of each set (Figure 1B).

| Structure (SMILES) | LD50 |
| --- | --- |
| CN1CC[C@]23CCCC[C@H]2[C@H]1Cc1ccc(O)cc13 | 150 mg/kg |
| Clc1cccc(-c2cc(Cl)cc(Cl)c2)c1 | 2300 mg/kg |
| Fc1cc(Br)c2nc(C(F)(F)F)[nH]c2c1 | 5.65 mg/kg |
| CC(=O)Nc1cccc(N=Nc2ccc(N(C)C)cc2)c1 | 5910 mg/kg |
| CN1CN(CCO)CSC1=S | 1000 mg/kg |
| c1cncc(CSSCc2cccnc2)c1 | 2150 mg/kg |
| CNC(=O)C(C)SCCSP(=O)(OC)OC (stereo not drawn) | 64 mg/kg |
| Cc1cc(=O)[nH]o1 | 3110 mg/kg |
| CC(O)CC(C)O (stereo not drawn) | 6860 mg/kg |
| COc1ccccc1OCCOC(=O)c1ccccc1OC(C)=O | 2930 mg/kg |
| O=[N+]([O-])c1ccccc1-c1ccccc1 | 1230 mg/kg |
| CNC(=O)ON=C1SCSC1(C)C | 0.67 mg/kg |
| CCN1CCCC1CNC(=O)c1cc(Cl)cc(Cl)c1OCc1ccccc1 (stereo not drawn) | 576 mg/kg |
| COP(N)(=S)Oc1cc(Cl)c(Cl)cc1Cl (stereo not drawn) | 700 mg/kg |
| COC(C)=NC#N | 432 mg/kg |
| CN(CCn1cnc2c1c(=O)n(C)c(=O)n2C)C1CCCCC1 | 2880 mg/kg |
| CCCN(CCC)c1c([N+](=O)[O-])cc(C(F)(F)F)cc1[N+](=O)[O-] | 1930 mg/kg |
| CCCc1ccccc1O | 500 mg/kg |
| COc1ccc(C=CC(=O)O)cc1O | 7900 mg/kg |
| CNCC12CCC(c3ccccc31)c1ccccc12 | 700 mg/kg and 600 mg/kg |
| O=C(CCc1ccccc1)OC1=C(OC(=O)CCc2ccccc2)C(=O)OC1=O | 10000 mg/kg |

| Structure (SMILES) | LD50 |
| --- | --- |
| CCN(CCCC(=O)C1CCCCC1)C(C)Cc1ccc(OC)cc1 (stereo not drawn) | 369 mg/kg |
| Cc1c(N(C)CS(=O)(=O)O)c(=O)n(-c2ccccc2)n1C | 3000 mg/kg |
| CC(C)c1ccc2oc3nc(N)c(C(=O)O)cc3c(=O)c2c1 | 10000 mg/kg |
| COP(=O)(OC)Sc1ccc(Cl)cc1 | 100 mg/kg |
| CCCCCCCCCCCCCCN(CC)C(C)(CO)CO | 1500 mg/kg |
| CCCCC(C)(C)CO | 2200 mg/kg |
| CCOP(=S)(SC(C)CC)N(C=O)CC (stereo not drawn) | 95.9 mg/kg |
| Fc1ccc(Br)cc1 | 2700 mg/kg |
| O=C(O)Cn1c(=O)n(Cc2ccc(Br)cc2F)c(=O)c2ccc(Cl)cc21 | 4250 mg/kg |
| CC(=O)OCCO | 8250 mg/kg |
| C=CCC(CC=C)(C(=O)OCCN(CC)CC)c1ccccc1 | 1500 mg/kg |
| O=C(CCCN1CCC(O)CC1)c1ccc(F)cc1 | 2400 mg/kg |
| CC(Cl)CO (stereo not drawn) | 218 mg/kg |
| CN1CCN(C2=Nc3ccccc3Sc3ccc(Cl)cc32)CC1 | 280 mg/kg |
| CCOP(=O)(OCC)SCC(C)(SCC)SCC | 15 mg/kg |
| CC(C)(C)c1cc(Br)c2nc(C(F)(F)F)[nH]c2c1 | 161 mg/kg |
| CC1CN(C2CCCCCCCCCCC2)CC(C)O1 (stereo not drawn) | 2640 mg/kg and 2500 mg/kg |
| CCCCCCCCCCCCOC(=O)CS(=O)(=O)O | 700 mg/kg |
| O=C(Nc1nc2ccc([N+](=O)[O-])cc2s1)c1ccc([N+](=O)[O-])cc1 | 1500 mg/kg |
| CNCCCC12CCC(c3ccccc31)c1ccccc12 | 760 mg/kg |
| C=CCC | 4000 mg/kg |

| Structure (SMILES) | LD50 |
| --- | --- |
| C/C(=N/NC(=O)c1ccncc1)c1ccco1 | 110 mg/kg |
| CC(C)(S)C(N)C(=O)O (racemic) | 365 mg/kg |
| OC(CNCC(O)C1COc2ccccc2O1)C1COc2ccccc2O1 (stereo not drawn) | 4490 mg/kg |
| CCc1c(C)[nH]c2c1C(=O)C(CN1CCOCC1)CC2 (stereo not drawn) | 261 mg/kg |
| CC(=O)OCCCc1ccccc1 | 4700 mg/kg |
| CNC(=O)Oc1ccc(C)c(N(C)C)c1 | 46 mg/kg |
| C=CC(=O)OCC(=O)OCC | 215 mg/kg |
| O=Nc1ccc(N=O)cc1 | 1020 mg/kg |
| CCC1(CC)COC(=O)NC1=O | 71 mg/kg |
| CCOP(=S)(OCC)SCCC(F)=C(F)F | 681 mg/kg |
| C=COC(=O)CCCCC(=O)OC | 6200 mg/kg |
| Nc1nc2cc(Br)ccc2o1 | 1000 mg/kg |
| Cc1cc(OCC(=O)N[C@@H]2C(=O)N3[C@@H]2SC(C)(C)[C@@H]3C(=O)O)ccc1Cl | 4000 mg/kg |
| CCOC(=O)C1(c2ccccc2)CCN(CCOCc2ccccc2)CC1 | 284 mg/kg |
| CSC(C)(C)C=NO | 742 mg/kg |
| OCCc1ccncc1 | 3500 mg/kg |
| O=[PH](O)c1ccccc1 | 1340 mg/kg |
| CNC(=O)N(C)N=O | 280 mg/kg |
| CC(Cl)(Cl)C(=O)O | 3860 mg/kg |
| C=C(C)C(=O)OCC | 14800 mg/kg |
| CSC(C)=NOC(=O)N(C)SN(C)C(=O)Oc1ccc(OC(=O)N(C)SN(C)C(=O)ON=C(C)SC)cc1 | 453 mg/kg |
